# Test results as given in PubChem BioAssay AID2305 (GlaxoSmithKline (GSK), 2010).
# Test system: P. falciparum 3D7 growth, pLDH absorbance
# Assay: blood-stage malaria parasite growth potency – strain 3D7, dose response (AID 2305)
row,Compound,IC50
1,CC(C)c1ccc(-c2noc(SCC(=O)N(C)c3ccc(F)cc3)n2)cc1,1170 nM
2,COc1ccc2cc(-c3nc(-c4c(Cl)cccc4Cl)[nH]c3-c3ccnc(NCCC4CCCN4C)c3)ccc2c1 (centres undefined),1030 nM
3,CC1CCN(Cc2cccc(C(=O)NCc3ccc(F)c(-c4cccc(CN5CCN[C@@H](C)C5)c4)c3)c2)CC1,1460 nM
4,Cc1cc(Cl)c(S(=O)(=O)NC(C)(C)C)cc1OCC(=O)NC1CCCCC1,550 nM
5,Cc1cccc2c3c([nH]c12)C1(CCN(Cc2ccccc2)CC1)NC(C(=O)NCc1ccccc1)C3 (centres undefined),1370 nM
6,O=C(NCCCc1ccccc1)c1csc(C2CCCN(C(=O)c3ccc(O)c(-c4cccc5ccccc45)c3)C2)n1 (centres undefined),970 nM
7,CCCc1ccc(S(=O)(=O)NC2CCN(c3ccnc(Nc4ccc(OC)cc4)n3)C2)cc1 (centres undefined),1190 nM
8,CC(C)C(C(=O)n1ncc2c3c(N)nc(N)nc3ccc21)C(C)C,650 nM
9,CCOc1cc2c(cc1OCC)C(c1cc(OC)c(O)cc1Cl)NCC2 (centres undefined),750 nM
10,CC(C)C[C@H](NC(=O)c1cc2ccccc2s1)C(=O)N[C@H]1CCN(Cc2ccc(OCCCN(C)C)c(Cl)c2)C1,900 nM
11,COc1ccc(CNCCc2cccs2)cc1-c1ccc(S(=O)(=O)NCCN2CCCC2)s1,880 nM
12,O=C(NCCN1CCN(S(=O)(=O)c2ccc(OC3CCNCC3)c(Br)c2)CC1)c1ccc(Cl)c(Cl)c1,890 nM
13,CC(Cc1ccc(OCc2ccccc2)cc1)NCC(O)c1cccc(Cl)c1 (centres undefined),550 nM
14,CCCCCCN1CCCN(Cc2cccc(NC(=O)c3cc4ccccc4s3)c2)CC1,660 nM
15,CC(Sc1nc(-c2ccccc2)c(-c2ccccc2)o1)C(=O)NC1CC1 (centres undefined),840 nM
16,CC(Oc1ccc(Cl)cc1)C(=O)N(C)C1CCN(CCCCCNC(=O)/C=C/c2ccc(Cl)c(Cl)c2)CC1 (centres undefined),960 nM
17,O=C(c1ccc2ccccc2n1)N1CCCc2cc(Br)ccc21,860 nM
18,CN1CCCc2ccc(NC(=O)c3ccc(-c4cc(C(F)(F)F)nn4C)s3)cc2C1,880 nM
19,C=CCN1CCC(N(Cc2cccc(Oc3ccccc3)c2)C(=O)C(c2ccccc2)c2ccccc2)CC1,1140 nM
20,FC(F)(F)c1cccc(Nc2nc3ccccc3nc2Nc2cccc(C(F)(F)F)c2)c1,140 nM
21,COc1ccc2nccc([C@@H](O)CN3CCC(NC(=O)Cn4nc(-c5ccc(C(F)(F)F)cc5)ccc4=O)CC3)c2c1,740 nM
22,O=C(Nc1ccc(Cl)cc1C(=O)Nc1cccc(F)c1)c1ccc([N+](=O)[O-])cc1,370 nM
23,O=c1cc(NCCCNCc2ccc(C(F)(F)F)c(F)c2)[nH]c2ccccc12,1190 nM

row,Compound,IC50
1,CCOc1cccc2nc(NCCCNCc3ccc(Cl)c(Cl)c3)cc(NCCCNCc3ccc(Cl)c(Cl)c3)c12,570 nM
2,NC(N)=Nc1nc(-c2ccc(N=C(N)N3CCC[C@H]3CN3CCCC3)cc2)cs1,1110 nM
3,O=C(NC1CCC(CN2CCC(c3c[nH]c4ccccc34)CC2)CC1)[C@H]1Cc2ccccc2CN1 (some centres undefined),950 nM
4,COc1cc(C(=O)N2N=C(c3c(-c4ccccc4)c4cc(Br)ccc4[nH]c3=O)CC2c2cccc([N+](=O)[O-])c2)cc(OC)c1OC (centres undefined),940 nM
5,O=C(NCCN1CCCC1)c1ccc(-c2ccc(-c3nc4ccccc4[nH]3)s2)cc1,940 nM
6,O=c1n(CC2CCCCC2)c2cc(Cl)cc(OCCNc3ccncc3)c2n1CC1CCCCC1,590 nM
7,OCC1CCN(Cc2cccc(-c3ccc(-c4nc5ccc(C(F)(F)F)cc5[nH]4)cc3)c2)CC1,660 nM
8,COc1ccc(CNc2nc(NCc3ccccc3)c3cc(OC)c(OC)cc3n2)cc1OC,540 nM
9,CCC[C@@H]([C@@H](CC1CCCCC1)C(=O)N[C@H](C(=O)Nc1ccccn1)[C@H](C)CC)N(O)C=O,530 nM
10,O=S(=O)(NCCN1CCCC1)c1ccc(-c2cccc(CNC3Cc4ccccc4C3)c2)cc1F,1020 nM
11,CN(C)Cc1ccc(O)c(-c2ccc(C(C)(C)C)cc2)n1,1080 nM
12,Nc1nc(N)c2c(Oc3cccc4ccccc34)cccc2n1,1010 nM
13,CC(C)(C)OC(=O)NCCc1cccc(-c2c[nH]c3ncc(-c4cccc(NS(C)(=O)=O)c4)cc23)c1,680 nM
14,O=C(NCC1CC1)C1CCN(C(c2ccccc2)c2nc3ccccc3s2)CC1 (centres undefined),1020 nM
15,CC(CCc1ccc(OCc2ccccc2)cc1)NCC(O)c1ccccc1 (centres undefined),1100 nM
16,Nc1nc2c(ncn2OC[C@H]2COP(=O)(O)CO2)c(=O)[nH]1,570 nM
17,COc1ccc(S(=O)(=O)Nc2ccc(C(=O)NCc3ccc(C(F)(F)F)cc3)cc2)cc1N1CCN(CC2CC2)CC1,1120 nM
18,Cc1[nH]c(C)c(-c2ccc(Oc3ccc(Cl)cc3)cc2)c(=O)c1Cl,790 nM
19,COc1ccc(CCN(C)CCOc2ccc(NC(=O)c3ccc([N+](=O)[O-])c4c(=O)c5ccccc5[nH]c34)cc2)cc1OC,930 nM
20,COc1ccc(CN2CCC(C(=O)Nc3cccc(-c4cccc(Cl)c4)c3)CC2)cc1O,970 nM
21,Cc1ccc([C@@H]2CC(=O)CC(c3ccccn3)[C@H]2[N+](=O)[O-])cc1 (some centres undefined),860 nM
22,O=C(O)c1ccc(-c2cnc3ccc(NC4CCC(O)CC4)nn23)cc1 (centres undefined),1000 nM
23,O=C(NCCNc1ccnc(Nc2ccc(F)cc2)n1)Nc1ccc2c(c1)OCO2,680 nM

row,Compound,IC50
1,CCOc1cc(C(=O)NC2CC(C)(C)N(C)C(C)(C)C2)ccc1-c1nc2cc(Cl)c(Cl)cc2[nH]1,860 nM
2,COc1ccccc1CNc1ccnc(N2CC(Oc3ccc(F)cc3)C2)n1,850 nM
3,Cc1cc(NN=Cc2ccccn2)c2cc(F)ccc2n1,760 nM
4,COc1ccc(CC(C)NCC(O)c2cccc(C(F)(F)F)c2)cc1F (centres undefined),830 nM
5,CCNc1cc(C(=O)N[C@@H](Cc2ccccc2)[C@H](O)CNC2(C(C)C)CCC2)cc(N2CCCCS2(=O)=O)c1,680 nM
6,FC(F)(F)c1cccc(-c2cc(NCCCn3ccnc3)nc(-c3ccncc3)n2)c1,110 nM
7,CCCCN(C(=O)c1ccccc1C)c1nnc(-c2ccccc2C)s1,930 nM
8,Cc1ccc(CC(C)NCC(O)c2cccc(Cl)c2)cc1F (centres undefined),740 nM
9,COc1cccc(-c2[nH]c3ccccc3c2CN2CCC(c3c(C)cccc3C)CC2)c1,1020 nM
10,COc1c(C2CCN(CCCCNC(=O)c3ccc(-c4ccc(C#N)cc4)cc3)CC2)ccc2c1C(C)(C)CCC2(C)C,410 nM
11,COCc1ccccc1C(=O)NCCOc1cc(C)cc(C)c1,350 nM
12,CCNc1cc(C(=O)N[C@@H](Cc2ccccc2)[C@H](O)CNCCC(C)c2ccccc2)cc(N2CCCC2=O)c1 (some centres undefined),510 nM
13,O=C(NCc1ccc(Cl)c(Cl)c1)c1ccc(-c2nc3ccc(Cl)cc3[nH]2)cc1,900 nM
14,Cc1nc(-c2cccc(Nc3nccc(NCC(O)c4ccc(C(F)(F)F)cc4)n3)c2)cs1 (centres undefined),510 nM
15,CCOc1cc(C=Cc2nc3ccccc3c(=O)[nH]2)cc(Cl)c1O,1180 nM
16,COc1ccccc1C1CCN(C2CCC(NC(=O)/C=C/c3ccc(OC(F)(F)F)cc3)CC2)CC1 (centres undefined),1350 nM
17,CCCCC1(c2ccc(F)cc2)NC(=O)N(CC(=O)c2cc(C)n(Cc3ccco3)c2C)C1=O (centres undefined),980 nM
18,COc1ccc(C(=O)NCCCCN2CCC(c3ccc4c(c3OC)CCCC4)CC2)cc1-c1ccc(C(F)(F)F)cc1,750 nM
19,CC(=NNc1nc2ccccc2s1)c1ccccn1,1120 nM
20,COc1ccc(CCn2c(=N)c(C(=O)NCc3ccccc3)cc3c(=O)n4cccc(C)c4nc32)cc1,340 nM
21,Cc1[nH]nc2cc(Nc3ccnc(Nc4cccc(CN5CCOCC5)c4)n3)ccc12,1580 nM
22,O=[N+]([O-])c1ccc(Oc2ccccc2CNCC2CCN(CC3CCCCC3)CC2)cc1,900 nM
23,Cc1ccc(Cl)cc1N1CCN(CCCNC(=O)C2CCN(c3nc4ccccc4[nH]3)CC2)CC1,900 nM
